Key:
[1] = Biodistribution in AR42J tumor-bearing mice; settings: female, CD-1 nude (athymic nude), mouse, iv, total radioactivity, i.v. ~5 MBq (~1 nmol), mean ± SD, n=3; for tissue to tissue ratio at 0.5 h / tissue uptake at 0.5 h: 30 min p.i.; for tissue to tissue ratio at 2 h / tissue uptake at 2 h: 2 h p.i.; for tissue to tissue ratio at 5 h / tissue uptake at 5 h: 5 h p.i.; for tissue uptake at 0.5 h / tissue uptake at 2 h / tissue uptake at 5 h: Biodistribution
Description: Female athymic nude mice (CD-1 nude), age 5–6 weeks, were obtained from Charles River Laboratories, Sulzfeld, Germany. U87MG cells and AR42J-cells were suspended in PBS (5 × 10^6 cells in 100 μL) and subcutaneously inoculated on each shoulder. Two to three weeks later, when the tumor reached a size of about 300–500 mm^3, the mice were used for the in vivo studies.
Biodistribution studies were performed with U87MG tumor and AR42J tumor-bearing mice 2 weeks after tumor cell inoculation. ^44Sc- and ^68Ga-labeled peptides (~5 MBq, ~1 nmol per mouse) were intravenously injected in a volume of 100–200 μL. Mice were sacrificed at 30 min, 2 h and 5 h after injection (p.i.) of the ^44Sc-labeled peptides. Mice which were injected with ^68Ga-labeled peptides were sacrificed at 30 min and 2 h p.i. Selected tissues and organs were collected, weighed, and counted for radioactivity using a γ-counter (Wallac Wizard 1480, Perkin Elmer). The results were listed as a percentage of the injected activity per gram of tissue mass (% IA/g), using counts of a defined volume of the original injection solution counted at the same time. The data were analyzed for significance using a two-way ANOVA test (Graph Pad Prism 6 software, version 6.05). A p-value of < 0.05 was considered statistically significant.

AR42J tumor-bearing mice = test: PET/CT imaging of AR42J tumor-bearing mice; settings: 3 h after i.v. injection of ~10 MBq (~1 nmol; ^44Sc-NODAGA-NOC ~3 nmol), one or two mice
Description: A bench-top preclinical PET scanner (G8, Sofie Biosciences, California, U.S.A. and Perkin Elmer, Massachusetts, U.S.A.) was employed for the PET scans of the tumor-bearing mice. The energy window was set to 150–650 keV. Mice were injected intravenously with ^44Sc- or ^68Ga-labeled peptides (~10 MBq, ~1 nmol per mouse) in a volume of 100–200 μL. The PET scans were performed 3 h and 5 h after injection of the ^44Sc-labeled peptides and 3 h after injection of the ^68Ga-labeled peptides, using G8 acquisition software (version 2.0.0.10). All static PET scans lasted for 20 min. During the acquisition the mice were anesthetized by inhalation of a mixture of isoflurane and oxygen. The images were reconstructed with maximum-likelihood expectation maximization (MLEM). Gauss post-reconstruction filtering was performed using VivoQuant post-processing software (version 2.10, inviCRO Imaging Services and Software, Boston, U.S.A.).

[2] = AR42J tumor / blood, Tumor-to-blood ratio
[3] = AR42J tumor / kidneys, Tumor-to-kidney ratio
[4] = AR42J tumor / liver, Tumor-to-liver ratio

## C[C@@H](O)[C@@H]1NC(=O)[C@H](CCCCN)NC(=O)[C@@H](Cc2c[nH]c3ccccc23)NC(=O)[C@H](Cc2cccc3ccccc23)NC(=O)[C@@H](NC(=O)[C@@H](Cc2ccccc2)NC(=O)CCC(C(=O)O)N2CCN(CC(=O)O)CCN(CC(=O)O)CC2)CSSC[C@@H](C(=O)N[C@H](CO)[C@@H](C)O)NC1=O (some centres unmarked) [^44Sc-NODAGA-NOC, metal not drawn]
[1]; [2]
  tissue to tissue ratio at 0.5 h: 5.23 ± 0.22
  tissue to tissue ratio at 2 h: 50.3 ± 16.8
  tissue to tissue ratio at 5 h: 78.6 ± 6.95
[1]; [3]
  tissue to tissue ratio at 0.5 h: 0.8 ± 0.1
  tissue to tissue ratio at 2 h: 1.22 ± 0.34
  tissue to tissue ratio at 5 h: 0.87 ± 0.24
[1]; [4]
  tissue to tissue ratio at 0.5 h: 8.13 ± 0.72
  tissue to tissue ratio at 5 h: 11.6 ± 1.51
[1]; AR42J tumor
  tissue uptake at 0.5 h: 9.9 ± 0.66 %ID/g
  tissue uptake at 2 h: 10.2 ± 1.17 %ID/g
  tissue uptake at 5 h: 10.8 ± 0.37 %ID/g
[1]; adrenals
  tissue uptake at 5 h: 2.87 ± 0.95 %ID/g
[1]; blood
  tissue uptake at 0.5 h: 1.89 ± 0.08 %ID/g
  tissue uptake at 2 h: 0.22 ± 0.06 %ID/g
  tissue uptake at 5 h: 0.14 ± 0.01 %ID/g
[1]; bone
  tissue uptake at 0.5 h: 1.38 ± 0.17 %ID/g
  tissue uptake at 5 h: 0.46 ± 0.06 %ID/g
[1]; brain
  tissue uptake at 0.5 h: 0.09 ± 0.01 %ID/g
  tissue uptake at 5 h: 0.06 ± 0.01 %ID/g
[1]; heart
  tissue uptake at 5 h: 0.3 ± 0.04 %ID/g
[1]; intestines, 5 MBq per mouse
  tissue uptake at 0.5 h: 0.74 ± 0.1 %ID/g
[1]; intestines
  tissue uptake at 2 h: 0.29 ± 0.07 %ID/g
  tissue uptake at 5 h: 0.38 ± 0.06 %ID/g
[1]; kidneys
  tissue uptake at 0.5 h: 12.4 ± 1.41 %ID/g
  tissue uptake at 2 h: 8.64 ± 1.62 %ID/g
  tissue uptake at 5 h: 13 ± 2.98 %ID/g
[1]; liver
  tissue uptake at 0.5 h: 1.22 ± 0.11 %ID/g
  tissue uptake at 2 h: 0.88 ± 0.15 %ID/g
  tissue uptake at 5 h: 0.94 ± 0.12 %ID/g
[1]; lung
  tissue uptake at 0.5 h: 4.28 ± 0.03 %ID/g
  tissue uptake at 2 h: 1.19 ± 0.28 %ID/g
  tissue uptake at 5 h: 0.89 ± 0.14 %ID/g
[1]; muscle
  tissue uptake at 0.5 h: 0.66 ± 0.08 %ID/g
  tissue uptake at 5 h: 0.26 ± 0.07 %ID/g
[1]; pancreas, 5 MBq per mouse
  tissue uptake at 0.5 h: 1.6 ± 0.12 %ID/g
  tissue uptake at 2 h: 1.12 ± 0.07 %ID/g
  tissue uptake at 5 h: 1.35 ± 0.29 %ID/g
[1]; spleen
  tissue uptake at 0.5 h: 0.91 ± 0.2 %ID/g
  tissue uptake at 2 h: 0.38 ± 0.05 %ID/g
  tissue uptake at 5 h: 0.47 ± 0.05 %ID/g
[1]; stomach, 5 MBq per mouse
  tissue uptake at 0.5 h: 1.45 ± 0.28 %ID/g
  tissue uptake at 2 h: 1.26 ± 0.22 %ID/g
  tissue uptake at 5 h: 1.24 ± 0.09 %ID/g
AR42J tumor-bearing mice
  PET/CT distribution of radioactivity (in words): accumulated solely in tumors and kidneys
